Experimental findings from patent US11111237B2, “Bicyclic compound and use thereof” (SK BIOPHARMACEUTICALS CO., LTD., priority 2019, dated 2021) are described below.

Where a name gives a salt, the structure may show the parent alone.

Chain of PRMT5-MEP50 enzyme complex (O14744 2-637): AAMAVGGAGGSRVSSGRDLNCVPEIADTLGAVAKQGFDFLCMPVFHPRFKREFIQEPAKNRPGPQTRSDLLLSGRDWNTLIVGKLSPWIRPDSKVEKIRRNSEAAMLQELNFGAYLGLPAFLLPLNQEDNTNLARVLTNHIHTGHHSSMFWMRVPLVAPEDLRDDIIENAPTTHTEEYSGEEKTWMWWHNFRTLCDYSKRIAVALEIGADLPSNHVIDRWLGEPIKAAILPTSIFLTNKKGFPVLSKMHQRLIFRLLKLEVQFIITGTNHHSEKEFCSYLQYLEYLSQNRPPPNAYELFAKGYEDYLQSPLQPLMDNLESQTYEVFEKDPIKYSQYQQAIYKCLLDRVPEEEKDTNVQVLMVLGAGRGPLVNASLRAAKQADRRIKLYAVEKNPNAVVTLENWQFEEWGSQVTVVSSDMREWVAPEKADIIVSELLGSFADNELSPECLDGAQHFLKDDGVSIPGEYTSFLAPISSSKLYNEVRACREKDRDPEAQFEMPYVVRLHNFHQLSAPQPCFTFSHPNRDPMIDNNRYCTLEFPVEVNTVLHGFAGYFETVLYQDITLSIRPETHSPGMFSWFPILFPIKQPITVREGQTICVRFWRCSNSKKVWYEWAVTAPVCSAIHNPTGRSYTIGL
Chain of PRMT5-MEP50 enzyme complex (Q9BQA1 2-342 partner): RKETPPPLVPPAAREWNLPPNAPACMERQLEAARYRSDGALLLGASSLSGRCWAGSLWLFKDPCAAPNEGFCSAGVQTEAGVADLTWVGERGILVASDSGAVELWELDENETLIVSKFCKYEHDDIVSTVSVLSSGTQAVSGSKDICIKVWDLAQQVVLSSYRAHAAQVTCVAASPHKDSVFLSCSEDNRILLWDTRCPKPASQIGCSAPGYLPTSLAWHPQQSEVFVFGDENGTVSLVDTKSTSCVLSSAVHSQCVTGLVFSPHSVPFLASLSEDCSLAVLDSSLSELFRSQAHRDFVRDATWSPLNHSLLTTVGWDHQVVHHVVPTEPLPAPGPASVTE

The target in the assay is PRMT5-MEP50 enzyme complex (Homo sapiens (Human), UniProt O14744). Description: PRMT5 enzyme activity in vitro assay (methylation of histone H4R3, ELISA absorbance at 450 nm). In kind it is biochemical. The note with it: SAM, histone H4 peptide, room temperature 2 hours, 8 points from 10 μM to 0.128 nM. In short, it runs like this:
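Human PRMT5-MEP50 was prepared at 5 μg/mL with SAM at 2 μM and reacted 2 h at room temperature on plate-coated histone H4 (1-20) peptide. An 8-point 1:5 compound series ran from 10 μM to 0.128 nM. H4R3 methylation was detected by antibody/HRP ELISA at 450 nm to give IC50.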
Broadly, the IC50 is the point on the concentration scale where inhibition reaches its midpoint. As for `CC(O)C#Cc1ccc2c(c1)OCCN(C[C@H](O)CN1CCc3ccccc3C1)C2=O` (stereo partly drawn) [Example 228, 4-[(2R)-3-(3,4-dihydro-1H-isoquinolin-2-yl)-2-hydroxy-propyl]-8-(3-hydroxybu-1-tynyl)-2,3-dihydro-1,4-benzoxazepin-5-one], the half-maximal inhibitory concentration (IC50) was in the range of 0.001 to 0.1 µM.
In the case of `CNCC#Cc1ccc2c(c1)OCCN(C[C@H](O)CN1CCc3ccccc3C1)C2=O` [Example 229, 4-[(2R)-3-(3,4-dihydro-1H-isoquinolin-2-yl)-2-hydroxy-propyl]-8-[3-(methylamino)pro-1-pynyl]-2,3-dihydro-1,4-benzoxazepin-5-one] it was 0.1 to 1 µM; in that of `O=C1c2ccc(-c3cccnc3)cc2OCCN1C[C@H](O)CN1CCc2ccccc2C1` [Example 230, 4-[(2R)-3-(3,4-dihydro-1H-isoquinolin-2-yl)-2-hydroxy-propyl]-8-(3-pyridyl)-2,3-dihydro-1,4-benzoxazepin-5-one], 0.001 to 0.1 µM.
In the case of `Cc1nn(C)cc1-c1ccc2c(c1)OCCN(C[C@H](O)CN1CCc3ccccc3C1)C2=O` [Example 231, 4-[(2R)-3-(3,4-dihydro-1H-isoquinolin-2-yl)-2-hydroxy-propyl]-8-(1,3-dimethylpyrazol-4-yl)-2,3-dihydro-1,4-benzoxazepin-5-one] it was 0.001 to 0.1 µM; in that of `Cn1cc(-c2ccc3c(c2)OCCN(C[C@H](O)CN2CCc4ccccc4C2)C3=O)cn1` [Example 232, 4-[(2R)-3-(3,4-dihydro-1H-isoquinolin-2-yl)-2-hydroxy-propyl]-8-(1-methylpyrazol-4-yl)-2,3-dihydro-1,4-benzoxazepin-5-one], 0.1 to 1 µM; in that of `Cc1c(-c2ccc3c(c2)OCCN(C[C@H](O)CN2CCc4ccccc4C2)C3=O)cnn1C` [Example 233, 4-[(2R)-3-(3,4-dihydro-1H-isoquinolin-2-yl)-2-hydroxy-propyl]-8-(1,5-dimethylpyrazol-4-yl)-2,3-dihydro-1,4-benzoxazepin-5-one], 0.1 to 1 µM.
In the case of `CC1(C)CN(C[C@H](O)CN2CCc3ccccc3C2)C(=O)c2ccc(OC3CCN(CCO)CC3)nc2O1` [Example 234, 4-[(2R)-3-(3,4-dihydro-1H-isoquinolin-2-yl)-2-hydroxy-propyl]-8-[[1-(2-hydroxyethyl)-4-piperidyl]oxy]-2,2-dimethyl-3H-pyrido[3,2-f][1,4]oxazepin-5-one] it was 0.001 to 0.1 µM; in that of `CC(C)(O)CN1CCC(Oc2ccc3c(c2)OCCN(C[C@H](O)CN2CCc4ccccc4C2)C3=O)CC1` [Example 238, 4-[(2R)-3-(3,4-dihydro-1H-isoquinolin-2-yl)-2-hydroxy-propyl]-8-[[1-(2-hydroxy-2-methyl-propyl)-4-piperidyl]oxy]-2,3-dihydro-1,4-benzoxazepin-5-one], 0.1 to 1 µM.
As for `CCOCCN1CCC(Oc2ccc3c(c2)O[C@H](C)CN(C[C@H](O)CN2CCc4ccccc4C2)C3=O)CC1` [Example 240, (2R)-4-[(2R)-3-(3,4-dihydro-1H-isoquinolin-2-yl)-2-hydroxy-propyl]-8-[[1-(2-ethoxyethyl)-4-piperidyl]oxy]-2-methyl-2,3-dihydro-1,4-benzoxazepin-5-one], the IC50 was 0.1 to 1 µM.
With `C[C@@H]1CN(C[C@H](O)CN2CCc3ccccc3C2)C(=O)c2ccc(OC3CC4CCC(C3)N4CCO)cc2O1` (stereo partly shown) [Example 241] the figure was 0.1 to 1 µM; with `C[C@@H]1CN(C[C@H](O)CN2CCc3ccccc3C2)C(=O)c2ccc(OC3CC4CCC(C3)N4CCF)cc2O1` (stereo partly shown) [Example 242], 0.001 to 0.1 µM.
With `COCCN1CCC(Oc2ccc3c(c2)OCCN(C[C@H](O)CN2CCc4ccccc4C2)C3=O)CC1` [Example 243] the figure was 0.001 to 0.1 µM.
Take `CC(O)CN1CCC(Oc2ccc3c(c2)O[C@H](C)CN(C[C@H](O)CN2CCc4ccccc4C2)C3=O)CC1` (stereo partly drawn) [Example 245, (2R)-4-[(2R)-3-(3,4-dihydro-1H-isoquinolin-2-yl)-2-hydroxy-propyl]-8-[[1-(2-hydroxypropyl)-4-piperidyl]oxy]-2-methyl-2,3-dihydro-1,4-benzoxazepin-5-one]: the IC50 lay within 0.1 to 1 µM.
With `CC(c1ccc2c(n1)OC(C)(C)CN(C[C@H](O)CN1CCc3ccccc3C1)C2=O)N1CCOCC1` (stereo partly drawn) [Example 246, 4-[(2R)-3-(3,4-dihydro-1H-isoquinolin-2-yl)-2-hydroxy-propyl]-2,2-dimethyl-8-(1-morpholinoethyl)-3H-pyrido[3,2-f][1,4]oxazepin-5-one] the figure was 0.1 to 1 µM; with `CC(c1ccc2c(n1)OC(C)(C)CN(C[C@H](O)CN1CCc3ccccc3C1)C2=O)N1CC2(COC2)C1` (stereo partly drawn) [Example 247, 4-[(2R)-3-(3,4-dihydro-1H-isoquinolin-2-yl)-2-hydroxy-propyl]-2,2-dimethyl-8-[1-(2-oxa-6-azaspiro[3.3]heptan-6-yl)ethyl]-3H-pyrido[3,2-f][1,4]oxazepin-5-one], 0.1 to 1 µM.
In the case of `CC(O)CN1CCC(Oc2ccc3c(n2)OC(C)(C)CN(C[C@H](O)CN2CCc4ccccc4C2)C3=O)CC1` (stereo partly drawn) [Example 248, 4-[(2R)-3-(3,4-dihydro-1H-isoquinolin-2-yl)-2-hydroxy-propyl]-8-[[1-(2-hydroxypropyl)-4-piperidyl]oxy]-2,2-dimethyl-3H-pyrido[3,2-f][1,4]oxazepin-5-one] it was 0.001 to 0.1 µM; in that of `O=C1c2ccc(CN3CCn4cccc4C3)cc2OCCN1C[C@H](O)CN1CCc2ccccc2C1` [Example 249, 4-[(2R)-3-(3,4-dihydro-1H-isoquinolin-2-yl)-2-hydroxypropyl]-8-(3,4-dihydro-1H-pyrrolo[1,2-a]pyrazin-2-ylmethyl)-2,3-dihydro-1,4-benzoxazepin-5-one], 0.1 to 1 µM.
With `C[C@@H]1CN(C[C@H](O)CN2CCc3ccccc3C2)C(=O)c2ccc(CN3CC4(COC4)C3)cc2O1` [Example 250, (2R)-4-[(2R)-3-(3,4-dihydro-1H-isoquinolin-2-yl)-2-hydroxypropyl]-2-methyl-8-(2-oxa-6-azaspiro[3.3]heptan-6-ylmethyl)-2,3-dihydro-1,4-benzoxazepin-5-one] the figure was 0.1 to 1 µM.
On to `O=C1c2ccc(CN3CCC4(CC3)COC4)cc2OCCN1C[C@H](O)CN1CCc2ccccc2C1` [Example 251, 4-[(2R)-3-(3,4-dihydro-1H-isoquinolin-2-yl)-2-hydroxypropyl]-8-(2-oxa-7-azaspiro[3.5]nonan-7-ylmethyl)-2,3-dihydro-1,4-benzoxazepin-5-one], for which the IC50 lay within 0.1 to 1 µM.
With `C[C@@H]1CN(C[C@H](O)CN2CCc3ccccc3C2)C(=O)c2ccc(CN3CCC4(CC3)COC4)cc2O1` [Example 252, (2R)-4-[(2R)-3-(3,4-dihydro-1H-isoquinolin-2-yl)-2-hydroxypropyl]-2-methyl-8-(2-oxa-7-azaspiro[3.5]nonan-7-ylmethyl)-2,3-dihydro-1,4-benzoxazepin-5-one] the figure was 0.1 to 1 µM; with `O=C1c2ccc(O[C@@H]3CCN(CCO)C[C@H]3F)cc2OCCN1C[C@H](O)CN1CCc2ccccc2C1` [Example 253, dihydrochloride], 0.1 to 1 µM; with `CC(O)CN1CC[C@@H](Oc2ccc3c(c2)OCCN(C[C@H](O)CN2CCc4ccccc4C2)C3=O)[C@H](F)C1` (stereo partly drawn) [Example 254, 4-[(2R)-3-(3,4-dihydro-1H-isoquinolin-2-yl)-2-hydroxy-propyl]-8-[[(3R,4R)-3-fluoro-1-(2-hydroxypropyl)-4-piperidyl]oxy]-2-methyl-2,3-dihydro-1,4-benzoxazepin-5-one divalnet hydrochloride], 0.1 to 1 µM.
In the case of `C[C@@H]1CN(C[C@H](O)CN2CCc3ccccc3C2)C(=O)c2ccc(OC3CCN(CCO)C[C@H]3F)cc2O1` (stereo partly drawn) [Example 255, (2R)-4-[(2R)-3-[(2R)-3-(3,4-dihydro-1H-isoquinolin-2-yl)-2-hydroxy-propyl]-8-[[(3R,4R)-3-fluoro-1-(2-hydroxyethyl)-4-piperidyl]oxy]-2-methyl-2,3-dihydro-1,4-benzoxazepin-5-one dihydrochloride] it was 0.1 to 1 µM; in that of `CC1(C)CN(C[C@H](O)CN2CCc3ccccc3C2)C(=O)c2ccc(OC3CCN(CCO)CC3(F)F)nc2O1` (stereo partly drawn) [Example 256, 8-[[3,3-difluoro-1-(2-hydroxyethyl)-4-piperidyl]oxy]-4-[(2R)-3-(3,4-dihydro-1H-isoquinolin-2-yl)-2-hydroxy-propyl]-2,2-dimethyl-3H-pyrido[3,2-f][1,4]oxazepin-5-one], 0.1 to 1 µM; in that of `C[C@@H]1CN(C[C@H](O)CN2CCc3ccccc3C2)C(=O)c2ccc(OC3CCN(CCO)CC3)cc2O1` [Example 261, (2R)-4-[(2R)-3-(3,4-dihydro-1H-isoquinolin-2-yl)-2-hydroxy-propyl]-8-[[1-(2-hydroxyethyl)-4-piperidyl]oxy]-2-methyl-2,3-dihydro-1,4-benzoxazepin-5-one di hydrochloride], 0.1 to 1 µM.
As for `COCCN1CCC(Oc2ccc3c(n2)OC(C)(C)CN(C[C@H](O)CN2CCc4ccccc4C2)C3=O)CC1` [Example 262, 4-[(2R)-3-(3,4-dihydro-1H-isoquinolin-2-yl)-2-hydroxy-propyl]-8-[[1-(2-methoxyethyl)-4-piperidyl]oxy]-2,2-dimethyl-3H-pyrido[3,2-f][1,4]oxazepin-5-one], the IC50 fell in the range of 0.1 to 1 µM.
In the case of `C[C@@H]1CN(C[C@H](O)CN2CCc3ccccc3C2)C(=O)c2ccc(O[C@H]3CCN(C)C3)cc2O1` [Example 264, (2R)-4-[(2R)-3-(3,4-dihydro-1H-isoquinolin-2-yl)-2-hydroxy-propyl]-2-methyl-8-[(3S)-1-methylpyrrolidin-3-yl]oxy-2,3-dihydro-1,4-benzoxazepin-5-one] it was 0.1 to 1 µM; in that of `C[C@H](O)CN1CCC(Oc2ccc3c(c2)O[C@H](C)CN(C[C@H](O)CN2CCc4ccccc4C2)C3=O)CC1` [Example 267, (2R)-4-[(2R)-3-(3,4-dihydro-1H-isoquinolin-2-yl)-2-hydroxy-propyl]-8-[[1-[(2S)-2-hydroxypropyl]-4-piperidyl]oxy]-2-methyl-2,3-dihydro-1,4-benzoxazepin-5-one], 0.1 to 1 µM.
